This is an account of results in paper PMC4145847 (ChemMedChem, 2014).

Where two headings read alike, the source gives them in different places.

The test system of assay [1] is DU-145 human prostate cancer cells. Kind of assay: Antiproliferative assay. In kind it is cell-based. Conditions: for GI50: read-out: GI50 DU-145; for Fold less active than 20b: DU-145 and MDA MB-231.
The subject of assay [2] is MDA MB-231 human breast cancer cells. Kind of assay: Antiproliferative assay. In kind it is cell-based. Conditions: for GI50: read-out: GI50 MDA MB-231.
Assay [3] concerns NCI 60-cell line panel. Kind of assay: NCI-60 cell line assay, mean over all 60 cell lines. In kind it is cell-based. As to conditions: for MGM: mean concentration that caused 50% growth inhibition in all 60 cell lines.
The test system of assay [4] is Melanoma UACC-62. Kind of assay: NCI-60 cell line assay, Melanoma UACC-62. In kind it is cell-based. As to conditions: Homo sapiens, UACC-62, read-out: GI50 Melanoma UACC-62.
The subject of assay [5] is Ovarian OVCAR-3. As to the kind of experiment: NCI-60 cell line assay, Ovarian OVCAR-3. Conditions: Homo sapiens, OVCAR-3, read-out: GI50 Ovarian OVCAR-3. The format is cell-based.
The test system of assay [6] is Lung HOP-62. Kind of assay: NCI-60 cell line assay, Lung HOP-62. Conditions: Homo sapiens, HOP-62, read-out: GI50 Lung HOP-62. The format is cell-based.
Assay [7] concerns Colon HCT-116. Kind of assay: NCI-60 cell line assay, Colon HCT-116. In kind it is cell-based. Conditions: Homo sapiens, HCT-116, read-out: GI50 Colon HCT-116.
Assay [8] relates to Renal SN12-C. As to the kind of experiment: NCI-60 cell line assay, Renal SN12-C. As to conditions: Homo sapiens, SN12C, read-out: GI50 Renal SN12-C. In kind it is cell-based.
Assay [9] deals with Bovine brain tubulin. As to the kind of experiment: Inhibition of tubulin assembly. The format is biochemical. Conditions: read-out: Tubulin assembly IC50; 10 μM tubulin; mean ±SD of at least two determinations.
Assay [10] has as its system Bovine brain tubulin. Kind of assay: Inhibition of [3H]colchicine binding to tubulin. Conditions: 1.0 μM tubulin, 5.0 μM [3H]colchicine, mean ±SD.
The subject of assay [11] is various cancer lines in sealed polyvinylidine fluoride fibres implanted i.p. or s.c. Kind of assay: NCI hollow fibre assay. As to conditions: mice; for Hollow fibre assay score (maximum 96): total score.
The mark [12] stands for this setting: mean of three determinations, 96 h.

What is called GI50 is the concentration that inhibits growth by half. Consider `CCOc1c(OC)cc(CN2CCc3cc(O)ccc3C2)cc1OC` [Compound 20g, 2-(3,5-Dimethoxy-4-ethoxybenzyl)-6-hydroxy-1,2,3,4-tetrahydroisoquinoline], for which the GI50 in [1] (Homo sapiens, DU-145, 96 h) is above 100000 nM; in assay [2] (Homo sapiens, MDA-MB-231, 96 h) it was above 100000 nM.
Turning to `COc1cc(CN2CCc3cc(O)ccc3C2)cc(Cl)c1OC` [Compound 20e, 2-(3-Chloro-4,5-dimethoxybenzyl)-6-hydroxy-1,2,3,4-tetrahydroisoquinoline], in assay [1], the “Fold less active than 20b” value is reported as 100- to 600 fold. Further, the GI50 worked out at 86000 nM in assay [1] (Homo sapiens, DU-145, 96 h) and 74000 nM in assay [2] (Homo sapiens, MDA-MB-231, 96 h).
With `CCc1cc2c(cc1O)CCN(Cc1cc(Br)c(OC)c(OC)c1)C2` [Compound 14, 2-(3-Bromo-4,5-dimethoxybenzyl)-7-ethyl-6-hydroxy-1,2,3,4-tetrahydroisoquinoline], the GI50 in assay [1] (Homo sapiens, DU-145, 96 h) is 1200 nM; in assay [2] (Homo sapiens, MDA-MB-231, 96 h), 400 nM.
In the case of `COc1cc2c(cc1OC(C)=O)CCN(Cc1cc(OC)c(OC)c(OC)c1)C2` [Compound 17b, 6-Acetoxy-7-methoxy-2-(3,4,5-trimethoxybenzyl)-1,2,3,4-tetrahydroisoquinoline], the GI50 in assay [1] (Homo sapiens, DU-145, 96 h) stood at 407 nM; in [2] (Homo sapiens, MDA-MB-231, 96 h), 340 nM.
As for `CCc1cc(CN2CCc3cc(OS(N)(=O)=O)c(OC)cc3C2)cc(CC)c1CC` [Compound 12i, 7-Methoxy-6-sulfamoyloxy-2-(3,4,5-triethylbenzyl)-1,2,3,4-tetra-hydroisoquinoline], the MGM in assay [3] was determined as 1.17 µM. The GI50 in assay [4] was 592 nM; in assay [5] it was 209 nM; in assay [6], 2450 nM; in [7], 1050 nM; in [8], 5290 nM.
As for `COc1cc2c(cc1OS(C)(=O)=O)CCN(Cc1cc(OC)c(OC)c(OC)c1)C2` [Compound 17c, 7-Methoxy-6-methanesulfonyloxy-2-(3,4,5-trimethoxybenzyl)-1,2,3,4-tetrahydroisoquinoline], the concentration for 50% growth inhibition (GI50) was 220 nM in assay [1] (Homo sapiens, DU-145, 96 h) and 188 nM in assay [2] (Homo sapiens, MDA-MB-231, 96 h).
A word on the IC50: it is the concentration at which inhibition is half-maximal. On to `COc1cc2c(cc1OS(N)(=O)=O)CCN(Cc1cc(Cl)c(OC)c(OC)c1)C2` [Compound 12e, 2-(3-Chloro-4,5-dimethoxybenzyl)-7-methoxy-6-sulfamoyloxy-1,2,3,4-tetrahydroisoquinoline], for which the MGM values in assay [3] (NCI 60-cell line assay, stated in abstract) is around 40 nM. Besides, in assay [3], the MGM came out at 0.039 µM. Moreover, the “Increase in antiproliferative activity relative to 4a” value in assay [1] (DU-145) is on record as 8- to 10 fold. For the same compound, the concentration for 50% growth inhibition (GI50) in assay [4] came to 25 nM; in assay [5] it was 20 nM; in assay [6] it was 56 nM; in [7] it was 39 nM; in assay [8], 66 nM. Moreover, in [9], the IC50 is 5600 ± 700 nM. In addition, the “Colchicine binding Inhibition at 5 μM inhibitor” value (“Colchicine binding Inhibition” below) in [10] came out at 32 ±3%.
Take `COc1ccc2c(c1)CCN(Cc1cc(OC)c(OC)c(OC)c1)C2` [Compound 20c, 6-Methoxy-2-(3,4,5-trimethoxybenzyl)-1,2,3,4-tetrahydroisoquinoline]: the “Fold less active than 20b” value in assay [1] is listed as 20- to 200 fold. The GI50 was found to be 31000 nM in assay [1] (Homo sapiens, DU-145, 96 h) and 4890 nM in assay [2] (Homo sapiens, MDA-MB-231, 96 h).
In the case of `COc1cc2c(cc1OS(N)(=O)=O)CCN(Cc1cc(Br)c(OC)c(OC)c1)C2` [Compound 12f, 2-(3-Bromo-4,5-dimethoxybenzyl)-7-methoxy-6-sulfamoyloxy-1,2,3,4-tetrahydroisoquinoline], in [3], the MGM worked out at 0.044 µM. The GI50 in assay [4] amounted to 28 nM; in assay [5], 18 nM; in assay [6], 80 nM; in [7], 38 nM; in assay [8] it was 55 nM. In [9], the 50% inhibitory concentration (IC50) turned out to be 2400 ± 400 nM. Besides, the “Hollow fibre assay score for i.p. fibres” value in [11] (dosed i.p. at 75 mg/kg) is 16. Moreover, the “Hollow fibre assay score for s.c. fibres” value in assay [11] (dosed i.p. at 75 mg/kg) turned out to be 18. Further, the “Hollow fibre assay score (maximum 96)” value in assay [11] (dosed i.p. at 75 mg/kg) was found to be 34. The “Colchicine binding Inhibition” value in assay [10] was found to be 45 ±0.6%.
Regarding `COc1cc(CN2CCc3cc(O)ccc3C2)cc(Br)c1OC` [Compound 20f, 2-(3-Bromo-4,5-dimethoxybenzyl)-6-hydroxy-1,2,3,4-tetrahydroisoquinoline], the GI50 in assay [1] (Homo sapiens, DU-145, 96 h) is 35000 nM; in assay [2] (Homo sapiens, MDA-MB-231, 96 h) it was 25000 nM.
Taken in the same sequence, the figures for `CCOc1cc(CN2CCc3cc(O)ccc3C2)cc(OCC)c1OCC` [Compound 20h, 6-Hydroxy-2-(3,4,5-triethoxybenzyl)-1,2,3,4-tetrahydroisoquinoline] were above 100000 nM and above 100000 nM.
As to `COc1cc(CCN2CCc3cc(O)ccc3C2)cc(OC)c1OC` [Compound 20j, 6-Hydroxy-2-(3,4,5-trimethoxyphenethyl)-1,2,3,4-tetrahydroisoquinoline], the GI50 in assay [1] (Homo sapiens, DU-145, 96 h) is above 100000 nM; in [2] (Homo sapiens, MDA-MB-231, 96 h) it was above 100000 nM.
For `COc1cc2c(cc1O)CCN(Cc1cc(Cl)c(OC)c(OC)c1)C2` [Compound 11e, 2-(3-Chloro-4,5-dimethoxybenzyl)-6-hydroxy-7-methoxy-1,2,3,4-tetrahydroisoquinoline], the MGM in [3] came out at 0.501 µM. In addition, the GI50 in [4] worked out at 350 nM; in assay [5], 187 nM; in [6] it was 869 nM; in assay [7], 474 nM; in [8], 910 nM.
As for `COc1cc(CN2CCc3cc(OCc4ccccc4)ccc3C2)cc(OC)c1OC` [Compound 20a, 6-Benzyloxy-2-(3,4,5-trimethoxybenzyl)-1,2,3,4-tetrahydroisoquinoline], the GI50 was above 100000 nM in assay [1] (Homo sapiens, DU-145, 96 h) and above 100000 nM in [2] (Homo sapiens, MDA-MB-231, 96 h).
Regarding `COc1cc2c(cc1OC)CN(Cc1cc(OC)c(OC)c(OC)c1)CC2` [Compound 17a, 6,7-Dimethoxy-2-(3,4,5-trimethoxybenzyl)-1,2,3,4-tetrahydroisoquinoline], the GI50 in assay [1] (Homo sapiens, DU-145, 96 h) was above 100000 nM; in assay [2] (Homo sapiens, MDA-MB-231, 96 h) it was 77600 nM. Moreover, the “Fold less active than 3a” value in [2] (MDA MB-231) is recorded as 120 fold.
The compound `COc1cc2c(cc1O)CCN(Cc1cc(Br)c(OC)c(OC)c1)C2` [Compound 11f, 2-(3-Bromo-4,5-dimethoxybenzyl)-6-hydroxy-7-methoxy-1,2,3,4-tetrahydroisoquinoline] showed an MGM in [3] of 0.38 µM. Also, the GI50 stood at 305 nM in assay [4]; 74 nM in assay [5]; 353 nM in [6]; 143 nM in [7]; 768 nM in assay [8]. Moreover, the “Hollow fibre assay score (maximum 96)” value in [11] (dosed i.p. at 150 mg/kg) was 2.
In the case of `COc1cc(CN2CCc3cc(OS(N)(=O)=O)ccc3C2)cc(OC)c1OC` [Compound 20d, 6-Sulfamoyloxy-2-(3,4,5-trimethoxybenzyl)-1,2,3,4-tetrahydroisoquinoline], the GI50 in assay [1] (Homo sapiens, DU-145, 96 h) was above 100000 nM; in assay [2] (Homo sapiens, MDA-MB-231, 96 h), above 100000 nM.
For `COc1cc(C(=O)N2CCc3cc(O)ccc3C2)cc(OC)c1OC` [Compound 20i, 6-Hydroxy-2-(3,4,5-trimethoxybenzoyl)-1,2,3,4-tetrahydroisoquinoline], the GI50 in [1] (Homo sapiens, DU-145, 96 h) is above 100000 nM; in assay [2] (Homo sapiens, MDA-MB-231, 96 h) it was above 100000 nM.
As to `COc1cc2c(cc1OS(N)(=O)=O)CC(C)N(Cc1cc(Br)c(OC)c(OC)c1)C2` (racemic) [Compound 12j, (±)-2-(3-Bromo-4,5-dimethoxybenzyl)-7-methoxy-3-methyl-6-sulfamoyloxy-1,2,3,4-tetrahydroisoquinoline], the GI50 in assay [1] (setting [12]) was 50 nM; in [2] (setting [12]), 40 nM. Also, in assay [9], the IC50 was 2400 ± 200 nM. For the same compound, the “Colchicine binding Inhibition” value in [10] worked out at 50 ±4%.
In turn, `COc1cc(CN2CCc3cc(O)ccc3C2)cc(OC)c1OC` [Compound 20b, 6-Hydroxy-2-(3,4,5-trimethoxybenzyl)-1,2,3,4-tetrahydroisoquinoline] displayed an MGM in assay [3] of 0.045 µM. For the same compound, the GI50 turned out to be 151 nM in [1] (Homo sapiens, DU-145, 96 h); 49 nM in assay [4]; 19 nM in assay [5]; 62 nM in assay [6]; 35 nM in [7]; 227 nM in assay [2] (Homo sapiens, MDA-MB-231, 96 h). Moreover, the GI50 in assay [8] came out at 49 nM. For the same compound, the IC50 in [9] came out at 1600 ± 100 nM. For the same compound, the “Colchicine binding Inhibition” value in assay [10] amounted to 73±3%.
As to `COc1cc2c(cc1O)CC(C)N(Cc1cc(Br)c(OC)c(OC)c1)C2` (racemic) [Compound 11j, (±)-2-(3-Bromo-4,5-dimethoxybenzyl)-6-hydroxy-7-methoxy-3-methyl-1,2,3,4-tetrahydroisoquinoline], the GI50 in [1] (setting [12]) is 400 nM; in assay [2] (setting [12]), 300 nM.
With `CCc1cc2c(cc1OS(N)(=O)=O)CCN(Cc1cc(Br)c(OC)c(OC)c1)C2` [Compound 15, 2-(3-Bromo-4,5-dimethoxybenzyl)-7-ethyl-6-sulfamoyloxy-1,2,3,4-tetrahydroisoquinoline], the GI50 in assay [1] (Homo sapiens, DU-145, 96 h) was 20 nM; in assay [2] (Homo sapiens, MDA-MB-231, 96 h), 30 nM. In assay [9], the IC50 worked out at 1800 ± 40 nM. In addition, the “Colchicine binding Inhibition” value in assay [10] was determined as 78±2%.
